# Data as given in ChEMBL document CHEMBL1127757, “A non-steroidal diene acid inhibitor of human type 2 stereoid 5-reductase” (Bioorg Med Chem Lett, 1994).
# Tests used:
# [1] = molecular target: T1, 3-oxo-5-alpha-steroid 4-dehydrogenase 1 (Homo sapiens, UniProt P18405); assay: Apparent inhibition constant towards human Steroid 5-alpha-reductase type I; […]
# T1 sequence (P18405 whole entry): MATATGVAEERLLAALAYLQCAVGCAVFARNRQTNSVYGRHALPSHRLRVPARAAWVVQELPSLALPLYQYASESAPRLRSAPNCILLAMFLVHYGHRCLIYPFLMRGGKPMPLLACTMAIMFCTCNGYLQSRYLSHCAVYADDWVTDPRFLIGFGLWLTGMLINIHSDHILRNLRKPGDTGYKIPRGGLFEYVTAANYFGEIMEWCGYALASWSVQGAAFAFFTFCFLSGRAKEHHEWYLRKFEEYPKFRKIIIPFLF
# [2] = molecular target: T2, 3-oxo-5-alpha-steroid 4-dehydrogenase 2 (Homo sapiens) (UniProt P31213); assay: Percent inhibition towards human Steroid 5-alpha-reductase type 2 at 2.5 uM concentration
# T2 sequence (whole entry): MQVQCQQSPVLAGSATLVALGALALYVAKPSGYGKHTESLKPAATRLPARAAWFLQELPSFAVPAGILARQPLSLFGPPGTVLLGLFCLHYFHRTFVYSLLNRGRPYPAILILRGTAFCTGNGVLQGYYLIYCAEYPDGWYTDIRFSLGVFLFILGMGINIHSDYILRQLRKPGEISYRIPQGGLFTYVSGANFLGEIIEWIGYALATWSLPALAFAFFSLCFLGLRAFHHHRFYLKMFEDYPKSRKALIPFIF
# [3] = molecular target: T3, 3-oxo-5-alpha-steroid 4-dehydrogenase 2 (Homo sapiens, UniProt P31213); assay: Apparent inhibition constant towards human Steroid 5-alpha-reductase type 2; details: read-out: Ki app
# T3 sequence (P31213 whole entry): T2 sequence (whole entry)
# [4] = molecular target: T1, 3-oxo-5-alpha-steroid 4-dehydrogenase 1; assay: Apparent inhibition constant towards human Steroid 5-alpha-reductase type I; details: read-out: Ki app
smiles,measurement,setting,value
COc1ccc2c(c1)CC=C1C=C(C(=O)O)CCC12C (centres undefined),Ki app,[1],No inhibition
same,inhibition,[2],30%
same,Ki,[3],> 2.5 µM
CC(C)(C)NC(=O)[C@H]1CC[C@H]2[C@@H]3CC[C@H]4NC(=O)C=C[C@]4(C)[C@H]3CC[C@]12C [FINASTERIDE],Ki,[4],0.1 µM
same,Ki,[3],0.002 µM
CN1C(=O)CCC2(C)c3ccc(Cl)cc3CCC12 (centres undefined),Ki,[4],0.02 µM
same,Ki,[3],> 5 µM
CC(C)N(C(=O)[C@H]1CCC2C3CC=C4C=C(P(O)O)CC[C@]4(C)C3CC[C@@]21C)C(C)C (some centres undefined),Ki,[4],4.9 µM
same,Ki,[3],0.0008 µM
CC12CCC(C(=O)O)=CC1=CCc1cc(Cl)ccc12 (centres undefined),Ki,[4],1.2 µM
same,Ki,[3],0.26 µM
CC12CCC(P(O)O)=CC1=CCc1cc(Cl)ccc12 (centres undefined),Ki,[4],1.9 µM
same,Ki,[3],1.6 µM
CC(C)(C)NC(=O)[C@H]1CC[C@H]2[C@@H]3CC=C4C=C(C(=O)O)CC[C@]4(C)[C@H]3CC[C@]12C [EPRISTERIDE],Ki,[4],0.41 µM
same,Ki,[3],0.0002 µM
COc1cccc2c1CC=C1C=C(P(O)O)CCC12C (centres undefined),Ki,[4],1.9 µM
same,Ki,[3],1.6 µM
COc1cccc2c1CC=C1C=C(C(=O)O)CCC12C (centres undefined),Ki,[4],1.9 µM
same,Ki,[3],1.6 µM
